Experimental data published in paper PMC6838762 (Biophysical Journal, 2019).

Biological target: T1, FeuA (Bacillus subtilis, UniProt P40409, Q131C)
T1 sequence (P40409 21-317 Q131C): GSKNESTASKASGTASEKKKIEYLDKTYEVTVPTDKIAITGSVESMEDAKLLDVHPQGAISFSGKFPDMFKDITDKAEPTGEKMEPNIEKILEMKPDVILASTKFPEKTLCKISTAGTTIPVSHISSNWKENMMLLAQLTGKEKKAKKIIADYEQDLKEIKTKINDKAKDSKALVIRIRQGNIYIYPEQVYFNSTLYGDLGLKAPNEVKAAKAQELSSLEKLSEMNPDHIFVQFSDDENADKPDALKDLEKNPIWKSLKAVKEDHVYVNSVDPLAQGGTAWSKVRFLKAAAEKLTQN
Format: binding

How did the Kd turn out when ferri-bacillibactin [FeBB] was run?
Its Kd is 20 ± 3 nM.
